Data on 15 compounds can be found in PubChem BioAssay AID282 (DTP/NCI, 2004).

SMILES strings stand for the structures. Where “and” joins values, the source holds several entries; their conditions need not be identical. Equal entries are not always repeated. Inconclusive results and toxic doses are left out.

The subject of the test is BDF1 mice, L1210 terephthalanilide-resistant leukemia ip, survival T/C. The experiment in a line: NCI In Vivo Anticancer Drug Screen. Data for tumor model L1210 Leukemia resistant to A Terephthalanilide; NSC 38280 (intraperitoneal) in B6D2F1 (BDF1) mice. The following applies: endpoint: mean survival time, higher = longer survival. The procedure:
The antitumor activity of compounds was measured in mice bearing transplantable tumors. Survival or tumor size were measured and the results are expressed as the measurement made in the treated group (T) divided by the measurement made in the vehicle treated control group (C). The tumor model used in this assay is L1210 Leukemia resistant to A Terephthalanilide; NSC 38280 (intraperitoneal) in B6D2F1 (BDF1) mice

Setting [1] is: dose: 10.0 mg/kg/injection, schedule: Q01DX010 (ip), vehicle: saline.
Setting [2] is: dose: 20.0 mg/kg/injection, schedule: Q01DX010 (ip), vehicle: saline.
Setting [3] is: dose: 25.0 mg/kg/injection, schedule: Q01DX Z (ip), vehicle: saline.
[4] abbreviates: dose: 37.5 mg/kg/injection, schedule: Q01DX Z (ip), vehicle: saline.
Setting [5] is: dose: 40.0 mg/kg/injection, schedule: Q01DX010 (ip), vehicle: saline.
[6] abbreviates: dose: 50.0 mg/kg/injection, schedule: Q01DX Z (ip), vehicle: saline.
[7] abbreviates: dose: 500.0 mg/kg/injection, schedule: Q01DX Z (ip), vehicle: saline.
The mark [8] stands for this setting: dose: 62.5 mg/kg/injection, schedule: Q01DX010 (ip), vehicle: saline.
Where [9] appears, read: dose: 125.0 mg/kg/injection, schedule: Q01DX010 (ip), vehicle: saline.
Setting [10] is: dose: 250.0 mg/kg/injection, schedule: Q01DX010 (ip), vehicle: saline.
Where [11] appears, read: dose: 500.0 mg/kg/injection, schedule: Q01DX010 (ip), vehicle: saline.
Where [12] appears, read: dose: 0.5 mg/kg/injection, schedule: Q01DX010 (ip), vehicle: saline.
The mark [13] stands for this setting: dose: 1.0 mg/kg/injection, schedule: Q01DX010 (ip), vehicle: saline.
Where [14] appears, read: dose: 30.0 mg/kg/injection, schedule: Q01DX010 (ip), vehicle: saline.

In the case of `S=P(N1CCOCC1)(N1CC1)N1CC1`, the T/C reads like this: (dose: 1.87 mg/kg/injection, schedule: Q01DX Z (ip), vehicle: carboxymethylcellulose (CMC)) 98 % of control and 111 % of control; (dose: 2.5 mg/kg/injection, schedule: Q01DX010 (ip), vehicle: saline) 92 % of control and 101 % of control; (dose: 3.75 mg/kg/injection, schedule: Q01DX Z (ip), vehicle: carboxymethylcellulose (CMC)) 107 % of control and 115 % of control; (dose: 5.0 mg/kg/injection, schedule: Q01DX010 (ip), vehicle: saline) 97 % of control and 102 % of control; (dose: 5.0 mg/kg/injection, schedule: Q01DX Z (ip), vehicle: carboxymethylcellulose (CMC)) 98 % of control and 114 % of control; under setting [1], 99 % of control and 100 % of control. The T/C was 101 % of control under setting [2]; 159 % of control (dose: 20.0 mg/kg/injection, schedule: Q01DX Z (ip), vehicle: carboxymethylcellulose (CMC)); 104 % of control (dose: 40.0 mg/kg/injection, schedule: Q01DX Z (ip), vehicle: carboxymethylcellulose (CMC)).

Take `N=C(N)c1ccc(Nc2ccc(C(=N)N)cc2)cc1`: the T/C reads like this: (dose: 3.0 mg/kg/injection, schedule: Q01DX010 (ip), vehicle: saline) 94 % of control; (dose: 6.0 mg/kg/injection, schedule: Q01DX010 (ip), vehicle: saline) 91 % of control; (dose: 7.5 mg/kg/injection, schedule: Q01DX Z (ip), vehicle: water) 95 % of control; (dose: 10.0 mg/kg/injection, schedule: Q01DX Z (ip), vehicle: water) 95 % of control; (dose: 12.0 mg/kg/injection, schedule: Q01DX010 (ip), vehicle: saline) 95 % of control; (dose: 15.0 mg/kg/injection, schedule: Q01DX Z (ip), vehicle: water) 95 % of control. Moreover, the T/C (dose: 20.0 mg/kg/injection, schedule: Q01DX Z (ip), vehicle: water) was 103 % of control.

For the compound `O=c1[nH]c(=O)n(C2CC(O)C(CO)O2)cc1F` (stereo not given), the T/C under setting [1] was 103 % of control; the T/C (dose: 12.5 mg/kg/injection, schedule: Q01DX Z (ip), vehicle: saline) was 118 % of control; the T/C under setting [2] is 110 % of control and 119 % of control; the T/C under setting [3] was 116 % of control; the T/C under setting [4] is 122 % of control; the T/C under setting [5] was 95 % of control. Further, the T/C was 178 % of control under setting [6]; 151 % of control (dose: 80.0 mg/kg/injection, schedule: Q01DX010 (ip), vehicle: saline); 183 % of control (dose: 100.0 mg/kg/injection, schedule: Q01DX Z (ip), vehicle: saline); 119 % of control under setting [7].

Take `CS(=O)(=O)OCCC(=O)N1CCN(C(=O)CCOS(C)(=O)=O)CC1`: the T/C is 106 % of control and 109 % of control (dose: 12.5 mg/kg/injection, schedule: Q01DX010 (ip), vehicle: saline); 120 % of control (dose: 25.0 mg/kg/injection, schedule: Q01DX010 (ip), vehicle: saline); 107 % of control (dose: 50.0 mg/kg/injection, schedule: Q01DX010 (ip), vehicle: saline); 120 % of control (dose: 100.0 mg/kg/injection, schedule: Q01DX010 (ip), vehicle: saline).

As for `OCC1OC(n2cnc3c(Cl)ncnc32)C(O)C1O` (stereo not given), the T/C is, setting by setting: under setting [8], 90 % of control and 99 % of control; under setting [9], 96 % of control and 101 % of control; under setting [10], 97 % of control and 103 % of control; under setting [11], 101 % of control and 106 % of control.

`NC(Cc1c[nH]c2ccc(N(CCCl)CCCl)cc12)C(=O)O` (stereo not given): the T/C was 117 % of control under setting [12]; 108 % of control under setting [13]; 120 % of control (dose: 2.0 mg/kg/injection, schedule: Q01DX010 (ip), vehicle: saline); 233 % of control (dose: 4.0 mg/kg/injection, schedule: Q01DX010 (ip), vehicle: saline).

As to `N[C@@H](Cc1ccc(N(CCCl)CCCl)cc1)C(=O)O`, the T/C is 252 % of control (dose: 2.0 mg/kg/injection, schedule: Q01DX Z (ip), vehicle: carboxymethylcellulose (CMC)); 155 % of control (dose: 4.0 mg/kg/injection, schedule: Q01DX Z (ip), vehicle: carboxymethylcellulose (CMC)); 187 % of control (dose: 8.0 mg/kg/injection, schedule: Q01DX Z (ip), vehicle: carboxymethylcellulose (CMC)); 169 % of control (dose: 12.0 mg/kg/injection, schedule: Q01DX Z (ip), vehicle: carboxymethylcellulose (CMC)); 91 % of control (dose: 18.0 mg/kg/injection, schedule: Q01DX Z (ip), vehicle: carboxymethylcellulose (CMC)).

As to `CC(=O)N(C)C`, the T/C is 94 % of control and 105 % of control under setting [8]; 92 % of control and 97 % of control under setting [9]; 108 % of control (dose: 125.0 mg/kg/injection, schedule: Q01DX Z (ip), vehicle: saline); 90 % of control and 96 % of control under setting [10]; 112 % of control (dose: 250.0 mg/kg/injection, schedule: Q01DX Z (ip), vehicle: saline); 96 % of control and 105 % of control under setting [11]. The T/C under setting [7] is 110 % of control and the T/C (dose: 750.0 mg/kg/injection, schedule: Q01DX Z (ip), vehicle: saline) is 114 % of control.

For `OCC1OC(n2cnc3c(=S)nc[nH]c32)C(O)C1O` (stereo not given), the T/C under setting [2] is 111 % of control; the T/C under setting [5] is 119 % of control; the T/C (dose: 160.0 mg/kg/injection, schedule: Q01DX010 (ip), vehicle: saline) is 162 % of control.

Regarding `C[N+](C)(C)c1ncnc2nc[nH]c12`, the T/C runs as follows: (dose: 15.0 mg/kg/injection, schedule: Q01DX010 (ip), vehicle: saline) 92 % of control; under setting [14], 110 % of control; (dose: 37.0 mg/kg/injection, schedule: Q01DX Z (ip), vehicle: saline) 102 % of control.

For `NC(=O)N(CCCl)N=O`, the T/C under setting [12] was 162 % of control; the T/C under setting [13] is 165 % of control; the T/C (dose: 1.0 mg/kg/injection, schedule: Q01DX Z (ip), vehicle: saline) was 348 % of control; the T/C (dose: 2.0 mg/kg/injection, schedule: Q01DX Z (ip), vehicle: saline) was 252 % of control; the T/C (dose: 6.0 mg/kg/injection, schedule: Q01DX Z (ip), vehicle: saline) is 110 % of control.

For `C[C@@H]1C[C@H]2CC[C@H](O2)[C@H](C)C(=O)O[C@@H](C)C[C@@H]2CC[C@@H](O2)[C@@H](C)C(=O)O[C@H](C)C[C@H]2CC[C@H](O2)[C@H](C)C(=O)O[C@@H](C)C[C@@H]2CC[C@@H](O2)[C@@H](C)C(=O)O1`, the T/C by setting is: (dose: 45.0 mg/kg/injection, schedule: Q01DX Z (ip), vehicle: carboxymethylcellulose (CMC)) 92 % of control; (dose: 90.0 mg/kg/injection, schedule: Q01DX Z (ip), vehicle: carboxymethylcellulose (CMC)) 95 % of control; (dose: 180.0 mg/kg/injection, schedule: Q01DX Z (ip), vehicle: carboxymethylcellulose (CMC)) 104 % of control; (dose: 360.0 mg/kg/injection, schedule: Q01DX Z (ip), vehicle: carboxymethylcellulose (CMC)) 108 % of control.

Consider `O=P1(N(CCCl)CCCl)NCCCO1` (stereo not given), for which the T/C runs as follows: (dose: 5.0 mg/kg/injection, schedule: Q01DX Z (ip), vehicle: saline) 102 % of control; (dose: 10.0 mg/kg/injection, schedule: Q01DX Z (ip), vehicle: saline) 124 % of control; (dose: 15.0 mg/kg/injection, schedule: Q01DX Z (ip), vehicle: saline) 122 % of control; under setting [3], 160 % of control; under setting [4], 200 % of control; under setting [6], 166 % of control and 239 % of control. Also, the T/C runs as follows: (dose: 75.0 mg/kg/injection, schedule: Q01DX Z (ip), vehicle: saline) 102 % of control; (dose: 200.0 mg/kg/injection, schedule: Q01DX Z (ip), vehicle: saline) 100 % of control.

Regarding `O=c1[nH]c(=O)n(C2CC(O)C(CO)O2)cc1I` (stereo not given), the T/C (dose: 500.0 mg/kg/injection, schedule: Q01DX Z (ip), vehicle: carboxymethylcellulose (CMC)) is 151 % of control.

As for `N#CCSc1ncnc2nc[nH]c12`, the T/C was 122 % of control (dose: 25.0 mg/kg/injection, schedule: Q01DX Z (ip), vehicle: carboxymethylcellulose (CMC)); 112 % of control and 113 % of control under setting [14]; 109 % of control and 115 % of control (dose: 60.0 mg/kg/injection, schedule: Q01DX010 (ip), vehicle: saline); 150 % of control (dose: 100.0 mg/kg/injection, schedule: Q01DX Z (ip), vehicle: carboxymethylcellulose (CMC)); 91 % of control (dose: 120.0 mg/kg/injection, schedule: Q01DX010 (ip), vehicle: saline).
